In US20250049735A1, “MEDICINE FOR STEATOHEPATITIS” (The University of Tokyo, priority 2021, published 2025):

Legend:
Atp8b1 E-KO mice [1] = details: mother mice fed 1% choline supplemented diet; pups at 4 weeks of age
Experimental: (§1) All animal experiments were approved by and performed in accordance with the guidelines of the animal experiment committee of the University of Tokyo. To generate Atp8b1^flox/flox mice, ICR and C57BL/6J mice were purchased from Charles River Laboratories International, Inc. (Yokohama, Japan). Mice were kept under pathogen-free conditions at a room temperature of 23.5° C.±2.5° C. and a relative humidity of 52.5%+12.5% under a 14-hour light: 10-hour dark cycle. […] In order to supplement choline to pups, mother mice were fed with a 1.0% choline supplemented diet (D20011404, Research Diets) until weaning of their pups.
Male mice harboring the designed floxed Atp8b1 allele with flox mutation were bred with female C57BL/6 mice, and the heterozygous floxed (Atp8b1^flox/+) mice in the obtained offsprings were intercrossed to produce homozygous floxed (Atp8b1^flox/flox) mice. The Atp8b1^flox/flox mice were crossed with villin-Cre transgenic mice (Stock No: 021504; The Jackson Laboratory, Bar Harbor, ME), and Atp8b1^flox/+; villin-Cre mice in the obtained offsprings were mated with Atp8b1^flox/flox mice to obtain intestinal epithelial cell (IEC)-specific Atp8b1 knockout (Atp8b1 IEC-KO; Atp8b1^flox/flox; villin-Cre) mice (Atp8b1 E-KO). Male Atp8b1 E-KO were mated with female Atp8b1^flox/flox mice, and the resulting Atp8b1 E-KO mice and littermate Atp8b1^flox/flox mice were used for animal experiments.
(§2) Male 3 to 4-week-old intestinal epithelial cell-specific Atp8b1 knockout (Atp8b1 E-KO) mice and control mice (littermate Flox/Flox mice) underwent laparotomy under isoflurane anesthesia. […] The blood was centrifuged at 1,700×g for 15 minutes, and plasma was separated. Thereafter, the plasma was flash-frozen in liquid nitrogen and was stored at −80° C. The liver was excised and was then flash-frozen in liquid nitrogen, and thereafter, the thus frozen liver was stored at −80° C., or was used for histological and electron microscopic analyses. The small intestine was excised, was then rinsed with cold PBS containing 0.5m M taurocholic acid, and was then used for histological and electron microscopic analyses, or for preparation of epithelial cells. To isolate epithelial cells from small intestine, TTDR kit (Becton Dickinson, Becton Drive Franklin Lakes, NJ) was used. According to the manufacturer's instructions included with the kit, the small intestine was opened longitudinally, was sliced into small fragments with a size of roughly 2 mm. The fragments were incubated with 1×TTDR diluted with DMEM (11995-065, gibco) at 37° C. for 30 minutes, and the resulting fragments were then mixed with 2 mM EDTA/PBS containing 1% BSA. The thus obtained mixture was filtrated through a 70 μm cell strainer (VWR21008-952; Corning Inc, Corning, NY), and was then centrifugated at 250×g at 4° C. for 10 minutes. The obtained cell pellets were incubated with 1×Pharm Lyse (Becton Dickinson, Becton Drive Franklin Lakes, NJ) at room temperature for 15 minutes for the lysis of red blood cells, and the resultant was then mixed with 2 mM EDTA/PBS containing 1% BSA. The thus obtained mixture was centrifuged at 250×g at 4° C. for 10 minutes. The prepared epithelial cells were flash frozen in liquid nitrogen, and were then stored at −80° C.
ALT and AST were determined by automatic measurement with Dri-chem (FUJIFILM, Tokyo, Japan).
The liver was cut into small pieces, was then fixed with 10% neutral buffered formalin, and was then embedded in paraffin. […]

Atp8b1 E-KO mice [2] = tested on: Atp8b1 E-KO mice
Experimental: as §1, §2
Metabolites were extracted from plasma, liver, and intestinal epithelial cells with methanol. After centrifugation at 20,000×g at 4° C. for 5 minutes, the supernatant was mixed with 400 mM ammonium sulfate at a ratio of 19:1. The mixture was centrifuged at 20,000×g at 4° C. for 5 minutes. The supernatant was applied to the LC/MS/MS system, which consisted of a UHPLC Nexera liquid chromatography system (Shimadzu co., Kyoto, Japan) and a 5500QTRAP mass spectrometer (AB Sciex pte. ltd., Toronto, Canada). The analytes were passed through a ZIC-CHILIC column (2.1×100 mm, 3 μm, Merck Millipore, Darmstadt, Germany) at a temperature of 30° C. with a gradient elution of the mobile phases, 10 mM ammonium formate aqueous solution and acetonitrile at a flow rate at 0.4 mL/min. The eluent was ionized using electrospray ionization and was scanned with an MRM mode (see Yuan et al., Nat. Protoc. 2012, 7 (5), 872-881. https://doi.org/10.1038/nprot.2012.024). Each MRM peak was assigned to a target molecule in comparison with its authentic standard.
The concentrations of choline, betaine, dimethylglycine (N,N-dimethylglycine) and glycerophosphorylcholine (sn-glycero-3-phosphocholine) in plasma were determined by liquid chromatography/tandem mass spectrometry (LC/MS/MS) assay. The sample was mixed with 98-fold volume of ethanol and 1-fold volume of the internal standard (IS) solution (10 μmol/L choline in water, 10 μmol/L glycerophosphorylcholine in water, and 1 μmol/L betaine in water).

[3] = liver of pups, mothers fed 1% choline supplemented diet vs normal diet (0.1% choline)
[4] = liver of pups, mothers fed 1% choline supplemented diet, compared with control mice
[5] = plasma and liver of Atp8b1 E-KO pups, mothers fed 1% choline supplemented diet, summary statement
[6] = plasma of pups, mothers fed 1% choline supplemented diet vs normal diet (0.1% choline)
[7] = plasma of pups, mothers fed 1% choline supplemented diet, compared with control mice
[8] = small intestinal epithelial cells of pups, mothers fed 1% choline supplemented diet vs normal diet (0.1% choline)

C[N+](C)(C)CCO [choline]
amount of neutrophils (MPO positive cells) in the liver (Atp8b1 E-KO mice [1]): reduced | amount of tissue macrophages (F4/80 positive cells) in the liver (Atp8b1 E-KO mice [1]): reduced | body weight (Atp8b1 E-KO mice [1]): No changes were observed | increase in liver weight observed in Atp8b1 E-KO pups (Atp8b1 E-KO mice [1]): resolved | small intestine length (Atp8b1 E-KO mice [1]): No changes were observed | concentration of choline in liver (Atp8b1 E-KO mice [2]; [3]): not changed | concentration of glycerophosphorylcholine (GPC) in liver (Atp8b1 E-KO mice [2]; [3]): not changed | concentration of phosphorylcholine in liver (Atp8b1 E-KO mice [2]; [3]): not changed | concentration of betaine in liver (Atp8b1 E-KO mice [2]; [4]): recovered | concentration of dimethylglycine in liver (Atp8b1 E-KO mice [2]; [4]): recovered | concentration of phosphatidylcholine (PC) in liver (Atp8b1 E-KO mice [2]; [4]): recovered | amount of choline in the pups (Atp8b1 E-KO mice [2]; plasma and liver of Atp8b1 E-KO pups, mothers fed 1% choline supplemented diet vs normal diet, summary statement): no change | amount of betaine in the pups (Atp8b1 E-KO mice [2]; [5]): increased | amount of dimethylglycine in the pups (Atp8b1 E-KO mice [2]; [5]): increased | amount of phosphatidylcholine (PC) in the pups (Atp8b1 E-KO mice [2]; [5]): increased | concentration of choline in plasma (Atp8b1 E-KO mice [2]; [6]): not changed | concentration of glycerophosphorylcholine (GPC) in plasma (Atp8b1 E-KO mice [2]; [6]): not changed | concentration of phosphorylcholine in plasma (Atp8b1 E-KO mice [2]; [6]): not changed | concentration of betaine in plasma (Atp8b1 E-KO mice [2]; [7]): recovered | concentration of dimethylglycine in plasma (Atp8b1 E-KO mice [2]; [7]): recovered | concentration of betaine in small intestinal epithelial cells (Atp8b1 E-KO mice [2]; small intestinal epithelial cells of pups, mothers fed 1% choline supplemented diet): not changed | concentration of choline in small intestinal epithelial cells (Atp8b1 E-KO mice [2]; [8]): not changed | concentration of glycerophosphorylcholine (GPC) in small intestinal epithelial cells (Atp8b1 E-KO mice [2]; [8]): not changed | concentration of phosphorylcholine in small intestinal epithelial cells (Atp8b1 E-KO mice [2]; [8]): not changed
